US8252737B2, “Antimicrobial peptides and methods of use” (priority 2004, dated 2012)
In brackets after ≈: the same amount, converted by molar mass.

Columns and labels:
human erythrocytes [1] = assay: Hemolytic activity (MHC), Protocol B, 18 hours; conditions: for MHC (μg/ml) hRBC: maximal peptide concentration with no hemolysis after 18 hours
Method: In order to evaluate the biological activities of the D-enantiomeric peptides, namely D-NAL and D-NKD, the hemolytic activity of the peptides against human erythrocytes was determined as the maximal peptide concentration that produces no hemolysis after 18 hours of incubation at 37° C.
(§1) Measurement of Hemolytic Activity—Protocol A: Peptide samples were added to 1% human erythrocytes in phosphate buffered saline (0.08M NaCl; 0.043M Na2PO4; 0.011M KH2PO4) and reactions were incubated at 37° C. for 12 hours in microtiter plates. Peptide samples were diluted 2 fold in order to determine the concentration that produced no hemolysis. […] Hemoglobin release was determined spectrophotometrically at 562 nm. The hemolytic titer was the highest 2-fold dilution of the peptide that still caused release of hemoglobin from erythrocytes. The control for no release of hemoglobin was a sample of 1% erythrocytes without any peptide added. […] Peptide samples were diluted 2 fold in order to determine the concentration that produced no hemolysis. […] Hemoglobin release was determined spectrophotometrically at 570 nm. The hemolytic titer was the highest 2-fold dilution of the peptide that still caused release of hemoglobin from erythrocytes. The control for no release of hemoglobin was a sample of 1% erythrocytes without any peptide added.

[2] = system: Pseudomonas aeruginosa strains
Method: Pseudomonas aeruginosa strains used in this study are a diverse group of clinical isolates from different places in the world. […] The geometric mean MIC values from six Pseudomonas aeruginosa strains were calculated to provide an overall evaluation of antimicrobial activity of these peptides against Pseudomonas aeruginosa. Fold improvement was calculated by comparing the geometric mean MIC value of each peptide to that of the parent peptide V681.
(§2) Measurement of Antimicrobial Activity—Minimal inhibitory concentrations (MICs) were determined using a standard microtiter dilution method in LB (Luria-Bertani) no-salt medium (10 g of tryptone and 5 g of yeast extract per liter). Briefly, cells were grown overnight at 37° C. in LB and diluted in the same medium. […] Plates were incubated at 37° C. for 24 hours and MICs determined as the lowest peptide concentration that inhibited growth. Alternatively, minimal inhibitory concentrations were determined using a standard microtiter dilution method in a Mueller-Hinton (MH) medium. Briefly, cells were grown overnight at 37° C. in MH broth and diluted in the same medium. […] Plates were incubated at 37° C. for 24 hours and MICs determined as the lowest peptide concentration that inhibited growth. However, for MIC determination of Pseudomonas aeruginosa clinical isolates, brain heart infusion (BH1) medium was used instead of MH broth. In addition, the bacteria were diluted to a final inoculum of 1×10^6 colony-forming units/ml.
For the Leu-substituted peptides, the hemolytic activity against human erythrocytes was determined as the maximal peptide concentration that produces no hemolysis after 18 hours of incubation at 37° C. Antimicrobial activity of the peptides was determined on a diverse group of Pseudomonas aeruginosa clinical isolates. […] The geometric mean MIC values from six Pseudomonas strains in Table 14 were calculated to provide an overall evaluation of antimicrobial activity of the peptides with different hydrophobicities.

gram-negative bacteria = assay: MIC, microtiter dilution, Gram-negative bacteria (geometric mean of 6 strains); assay type: cell-based; conditions: geometric mean of MIC values from all 6 Gram-negative strains of Table 11
Method: (§3) The geometric mean MIC values from 6 microbial strains in this table were calculated to provide an overall evaluation of antimicrobial activity against gram-negative bacteria.
In Table 11, geometric mean MIC was calculated to provide an overall view of antimicrobial activity of the peptides against Gram-negative bacteria and was also used to calculate the therapeutic index.
as §2

[3] = system: Staphylococcus epidermidis
E. faecalis = system: E. faecalis
Method: as §2

gram-positive bacteria = system: gram-positive bacteria
Method: as §2

S. typhimurium C610 abs = conditions: C610 abs
Method: as §3, §2

P. aeruginosa H187 wt = system: P. aeruginosa H187 wt
Method: as §3, §2

[4] = system: E. coli (UB 1005 wt and DC2 abs)
Method: as §3, §2

[5] = C610 abs
Method: as §3, §2

[6] = RP-HPLC temperature profiling (hydrophobicity and self-association/dimerization parameter PA); assay type: physicochemical
Method: The retention time data for the peptides is shown in Table 5 which records retention times at 5° C., the maximal retention times and retention times at 80° C. during the temperature profiling. Temperatures of 5° C. and 80° C. were the lower and upper temperature limits of temperature profiling in RP-HPLC, representing dimerization of the peptides at 5° C. and the monomerization of peptides at 80° C. due to dissociation of the dimers. The maximal retention times represent the threshold points at which peptides transform from dimeric to monomeric form. Among the non-polar face substituted peptides, peptides with more hydrophobic substitutions (whether L- or D-amino acid substitutions) were more retained during RP-HPLC, i.e., peptides were eluted in the order of Lys, Gly, Ser, Ala, Val and Leu (Table 5). In addition, on the non-polar face, the L-analogs were always more retained than the D-diastereomers (Table 5, FIG. 5). […] In contrast, on the polar face, the elution order of peptides was not correlated with the order of amino acid side-chain hydrophobicity, e.g., PAL and PSL were more retained than PVL (Table 5); PSD was the most retained peptide among the D-amino acid substituted analogs on the polar face (Table 5).
The ability of the D-peptides to self-associate was determined by RP-HPLC temperature profiling. […] As expected, L- and D-peptide enantiomers were totally inseparable over this temperature range, since each pair of peptides is identical in sequence and must adopt identical conformations on interacting with the reversed-phase matrix, whether in an all-L- or all-D-conformation. RP-HPLC retention behavior has been frequently utilized to represent overall peptide hydrophobicity (53, 26). In the present study, the hydrophobicity of the three peptide pairs is in the order V681/D-V681>[…]>NKL/D-NKD (Table 4), which agrees with the change in hydrophobicity of the substitutions at position 13 in order of the most hydrophobic to the least hydrophobic amino acid residue (Val in V681>Ala in NA>Lys in NK) (54). […] For example, the retention times of peptides V681/D-V681 increase with increasing temperature (up to ˜30° C.) followed by a retention time decrease with a further temperature increase. […] Since peptide C is a monomeric random coil peptide in both aqueous and hydrophobic media, its retention behavior over the temperature range 5° C. to 80° C. represents only general temperature effects on peptide retention behavior, i.e., a linear decrease in peptide retention time with increasing temperature due to greater solute diffusivity and enhanced mass transfer between the stationary and mobile phases at higher temperatures (55). Thus, after normalization to the retention times of peptide C, the retention behavior of the peptides represents only peptide self-association ability. Note that the higher the PA value, the greater the self-association ability. […] From Table 4, it is also clear that the peptide retention times at 80° C. are dramatically lower than those at 5° C.
Elution times during RP-HPLC have frequently been utilized as a measure of relative hydrophobicity of peptide analogs (26, 31). In the current study, peptide analogs differed only by a single amino acid substitution on either the non-polar face or the polar face of V681; thus, the retention time data in Table 5 can be considered to reflect the hydrophobicity difference between peptide analogs. In order to more easily visualize the variation in hydrophobicity of the peptide analogs, the retention time data in Table 5 were normalized relative to that of the native peptide V681 at 5° C. and 80° C., respectively. Hydrophobicity relative to the native peptide V681 indicates an increase or decrease of the apparent peptide hydrophobicity with the different amino acid substitutions on the polar or non-polar face. […]

human erythrocytes [7] = assay: Hemolytic activity (MHC), Protocol A, 12 hours; conditions: incubation for 12 hours at 37° C. (Tables 7 and 8)
Method: as §1

[8] = Circular dichroism spectroscopy of helical structure (benign buffer and 50% TFE); assay type: physicochemical; conditions: 25° C.
Method: To determine the secondary structure of peptides in different environments, circular dichroism (CD) spectra of the peptide analogs were measured under physiologically related pH and ionic strength (100 mM KCl, 50 mM aq. PO4, pH 7 referred to as benign conditions) and also in 50% TFE to mimic the hydrophobic environment of the membrane. […] On the non-polar face, the native L-Val residue was critical in maintaining α-helical structure. […] Even the substitution with L-Ala, which is known to have the highest α-helical propensity of all 20 amino acids (34), could not stabilize the α-helical structure. […] It is noteworthy that, on the non-polar face, the magnitude of the helical content of L-peptides in benign buffer was related to the hydrophobicity of the substituting amino acids, i.e., NLL>NVL>NAL>NSL, NKL, again showing the importance of hydrophobicity on the non-polar face in maintaining the α-helical structure. […] However, whether L- or D-substitutions were made on the non-polar face, high helical structure could be induced by the hydrophobic environment of 50% TFE, a mimic of the membrane's hydrophobicity and α-helix inducing ability (Table 3).
To determine the secondary structure of the D-enantiomeric peptides in different environments, CD spectra of the peptide analogs were measured under benign conditions (100 mM KCl, 50 mM KH2PO4/K2HPO4, pH 7.4, referred to as KP buffer) and also in 50% trifluoroethanol (TFE) to mimic the hydrophobic environment of the membrane. […] However, in the presence of 50% TFE, all three L-peptides were fully folded α-helical structures with similar ellipticities and helicity (Table 4).
Characterization of Helical Structure—The mean residue molar ellipticities of peptides were determined by circular dichroism (CD) spectroscopy, using a Jasco J-720 spectropolarimeter (Jasco, Easton, Md.), at 25° C. under benign conditions (50 mM KH2PO4/K2HPO4/100 mM KCl, pH 7), as well as in the presence of an α-helix inducing solvent, 2,2,2-trifluoroethanol (TFE) (50 mM KH2PO4/K2HPO4/100 mM KCl, pH 7 buffer/50% TFE). A 10-fold dilution of a ˜500 μM stock solution of the peptide analogs was loaded into a 0.02 cm fused silica cell and its ellipticity scanned from 190 to 250 nm. The values of molar ellipticities of the peptide analogs at a wavelength of 222 nm were used to estimate the relative α-helicity of the peptides.

In the case of `CC[C@@H](C)[C@@H](NC(=O)[C@@H](C)NC(=O)[C@@H](CCCCN)NC(=O)[C@@H](CC(C)C)NC(=O)[C@@H](C)NC(=O)[C@H](NC(=O)[C@@H](Cc1c[nH]cn1)NC(=O)[C@@H](CC(C)C)NC(=O)[C@H](NC(=O)[C@H](NC(=O)[C@@H](CCCCN)NC(=O)[C@H](NC(=O)[C@@H](C)NC(=O)[C@@H](CO)NC(=O)[C@@H](CCCCN)NC(=O)[C@@H](Cc1ccccc1)NC(=O)[C@H](NC(=O)[C@@H](CCCCN)NC(=O)[C@@H](CC(C)C)NC(=O)[C@@H](Cc1ccccc1)NC(=O)[C@@H](CO)NC(=O)[C@@H](CCCCN)NC(=O)[C@@H](Cc1c[nH]c2ccccc12)NC(=O)[C@@H](CCCCN)NC(C)=O)[C@H](C)O)C(C)C)[C@H](C)O)C(C)C)[C@H](C)O)C(=O)N[C@H](CO)C(=O)N[C@H](CO)C(N)=O` [D-V681], the “MIC (μg/ml) C. xerosis C875 wt” value (Corynebacterium xerosis) was 3.1 µg/mL (≈ 1.05 µM), the “MIC (μg/ml) S. aureus 623 methR” value (Staphylococcus aureus; methicillin-resistant clinical strain) was 6.3 µg/mL (≈ 2.13 µM) and the “MIC (μg/ml) S. aureus 622 wt” value (Staphylococcus aureus; wild type strain) was 6.3 µg/mL (≈ 2.13 µM). The “MHC (μg/ml) hRBC” value (human erythrocytes [1]; Table 11) was 7.8 µg/mL, the “MHC (μg/ml) hRBC” value (human erythrocytes [1]; Table 12) was 7.8 µg/mL and the “Hemolytic activity MHC” value (human erythrocytes [1]; red cells of human, 18 h) was 7.8 µg/mL. For the same molecule, the “MIC PAK” value ([2]; strain PAK) was 31.3 µg/mL (≈ 10.6 µM), the “MIC PAO 1” value ([2]; strain PAO 1) was 15.6 µg/mL (≈ 5.27 µM) and the “MIC (μg/ml) GM” value (gram-negative bacteria) was 6.3 µg/mL (≈ 2.13 µM). For the same molecule, the “MIC (μg/ml) S. epidermidis C621 wt” value [3] was 1.6 µg/mL (≈ 0.54 µM), the “MIC (μg/ml) E. faecalis C625 wt” value (E. faecalis) was 6.3 µg/mL (≈ 2.13 µM) and the “MIC (μg/ml) GM” value (gram-positive bacteria) was 3.5 µg/mL (≈ 1.18 µM). The “MIC (μg/ml) St C610 abs” value (S. typhimurium C610 abs) was 6.3 µg/mL (≈ 2.13 µM), the “MIC (μg/ml) Pa H188 abs” value (P. aeruginosa H187 wt) was 6.3 µg/mL (≈ 2.13 µM) and the “MIC (μg/ml) Pa H187 wt” value (P. aeruginosa H187 wt; H187 wt) was 6.3 µg/mL (≈ 2.13 µM). The “MIC (μg/ml) E. coli C500 abs” value ([4]; antibiotic sensitive strain) was 3.1 µg/mL (≈ 1.05 µM), the “MIC (μg/ml) E. coli C498 wt” value ([4]; wild-type lab strain) was 6.3 µg/mL (≈ 2.13 µM) and the “MIC (μg/ml) St C587 wt” value [5] was 12.5 µg/mL (≈ 4.22 µM). The “MIC (μg/ml) B. subtilis C971 wt” value (Bacillus subtilis) was 1.6 µg/mL (≈ 0.54 µM).
With Ac-KWKSFLKTFKVAVKTVLHTALKAISS-NH2 [PVL] the “tR (min) 5° C.” value ([6]; RP-HPLC retention time at 5° C. during temperature profiling (measure of hydrophobicity)) was 47.83 min, the “tR (min) 80° C.” value ([6]; RP-HPLC retention time at 80° C. during temperature profiling) was 46.18 min and the “tR (min) Max” value ([6]; maximal RP-HPLC retention time during temperature profiling 5-80° C.) was 49.93 min. The “PA (min) association parameter” value ([6]; maximal retention time difference relative to control peptide C within 5-80° C.) was 3.91 min, the “ΔtR (X-PSL) (min) 5° C.” value ([6]; polar face substitutions, retention time difference relative to native peptide V681 (PSL) at 5° C., relative hydrophobicity) was -0.27 min and the “ΔtR (X-PSL) (min) 80° C.” value ([6]; polar face substitutions, retention time difference relative to native peptide V681 (PSL) at 80° C., relative hydrophobicity) was 0.35 min. For the same molecule, the “minimal hemolytic concentration (MHC)” value (human erythrocytes [7]) was 7.8 µg/mL, the “% helix 50% TFE” value ([8]; 50% TFE, relative to NAL in 50% TFE) was 80% and the “[θ]222 Benign” value ([8]; benign buffer (100 mM KCl, 50 mM PO4 pH 7.0)) was −7,550 deg · cm^2 · dmol^−1. For the same molecule, the “[θ]222 50% TFE” value ([8]; benign buffer diluted 1:1 (v/v) with TFE) was −23,050 deg · cm^2 · dmol^−1 and the “% helix Benign” value ([8]; benign buffer, relative to NAL in 50% TFE) was 26%.
